Source: patent publication US8168651B2, “Protein kinase modulators” (Cylene Pharmaceuticals, Inc., priority 2008, dated 2012)
pIC50: −log10 of the molar value.

Columns and labels:
recombinant human CK2 = recombinant human CK2 (Homo sapiens (Human), UniProt P68400); assay: CK2 assay (cell-free, 33P-ATP filter plate); assay type: biochemical; details: for inhibition at 5 µM: read-out: CK2 Inhibition; for inhibition at 10 µM: read-out: CK2 % inhib @ 10 uM
PARP-HSA enzyme = PARP-HSA enzyme (Homo sapiens (Human), UniProt P09874); assay: PARP assay (chemiluminescent PARP assay kit, Trevigen); assay type: biochemical; details: for pIC50: read-out: PARP Inhibition IC50
Sequence of PARP-HSA enzyme (P09874 whole entry): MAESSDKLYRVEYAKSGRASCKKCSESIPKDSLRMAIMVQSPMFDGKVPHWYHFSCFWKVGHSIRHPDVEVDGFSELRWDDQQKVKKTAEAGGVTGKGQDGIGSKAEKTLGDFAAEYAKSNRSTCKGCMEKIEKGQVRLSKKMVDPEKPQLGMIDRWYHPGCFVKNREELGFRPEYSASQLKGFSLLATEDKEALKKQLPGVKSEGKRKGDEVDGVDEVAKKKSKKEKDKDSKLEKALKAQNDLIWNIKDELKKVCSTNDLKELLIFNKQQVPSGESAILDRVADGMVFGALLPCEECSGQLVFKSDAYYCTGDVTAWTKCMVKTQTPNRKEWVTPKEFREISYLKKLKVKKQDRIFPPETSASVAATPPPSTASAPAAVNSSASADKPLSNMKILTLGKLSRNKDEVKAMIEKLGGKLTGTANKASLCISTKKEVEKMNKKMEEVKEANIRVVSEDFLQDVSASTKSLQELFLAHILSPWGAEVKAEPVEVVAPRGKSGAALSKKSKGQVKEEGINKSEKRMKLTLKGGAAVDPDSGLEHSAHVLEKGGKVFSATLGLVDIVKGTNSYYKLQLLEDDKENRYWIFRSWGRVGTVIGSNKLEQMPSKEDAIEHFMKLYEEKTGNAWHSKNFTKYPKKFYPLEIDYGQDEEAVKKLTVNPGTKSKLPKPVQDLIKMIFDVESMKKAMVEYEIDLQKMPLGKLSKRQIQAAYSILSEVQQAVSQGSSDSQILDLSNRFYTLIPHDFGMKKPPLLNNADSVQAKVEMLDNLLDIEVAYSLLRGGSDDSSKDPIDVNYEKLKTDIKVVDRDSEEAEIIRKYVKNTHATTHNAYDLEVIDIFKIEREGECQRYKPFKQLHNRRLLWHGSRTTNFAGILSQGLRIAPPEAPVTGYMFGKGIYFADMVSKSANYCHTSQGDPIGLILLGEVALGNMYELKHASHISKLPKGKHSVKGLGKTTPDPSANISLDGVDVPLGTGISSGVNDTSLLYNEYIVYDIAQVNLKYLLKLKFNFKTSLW
Protocol: Modulatory activity of compounds described herein was assessed in vitro in cell-free CK2 assays. Modulatory activity of compounds described herein also are assessed in vitro in cell-free PARP assays. These assays are described hereafter.
PARP assays are conducted using a chemiluminescent PARP assay kit (Trevigen). Briefly, reactions are performed in Histone-coated strip wells, by adding 10 microliters test compound dissolved in 1×PARP Buffer (prepared by mixing 20×PARP buffer diluted with high-purity water) and 15 microliters diluted PARP-HSA enzyme (diluted in 1×PARP buffer, 0.1 unit per well) to 25 microliters PARP cocktail (prepared from 10×PARP cocktail and 10× activated DNA, both 2.5 microliters per well and 20 microliters per well of 1×PARP buffer). The reactions are incubated at ambient temperature for 60 minutes, then the liquid was removed. After washing the wells four times with PBS (200 ul), 50 microliters of STREP-HRP (Horseradish Peroxidase) solution (diluted 500-fold in 1× Strep-Diluent) was added and the reactions were allowed to incubate for 30 minutes at ambient temperature. The liquid was removed and, after washing the wells four times with PBS (200 ul), 50 microliters each of PeroxyGlo A and B (Chemiluminescent Horseradish Peroxidase substrates) are added and the resulting chemiluminescence quantified on the SpectraMax M5 plate reader.

MV-411 = MV-411 IC50 (Table 46); assay type: cell-based; details: Homo sapiens, MV4-11
MDA MB231 = MDA MB231 IC50 (Table 46); assay type: cell-based; details: Homo sapiens, MDA-MB-231
K-562 = K-562 IC50 (Table 46); assay type: cell-based; details: Homo sapiens, K562
[1] = test system: PC-3 human prostatic cancer cells; assay: Cell-proliferation assay using Alamar Blue dye; assay type: cell-based; details: read-out: PC3 IC50
Method in brief: (§1)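 4,000-5,000 cells/well; compound 4 days, 37° C., 5% CO2; Alamar Blue 4 h; fluorescence ex 544 / em 590 nm. Controls: medium only, cells without compound.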

recombinant human PIM1 = recombinant human PIM1 (Homo sapiens (Human), UniProt P11309); assay: PIM-1 kinase activity in cell-free in vitro assay; assay type: biochemical
Sequence of recombinant human PIM1 (P11309 whole entry): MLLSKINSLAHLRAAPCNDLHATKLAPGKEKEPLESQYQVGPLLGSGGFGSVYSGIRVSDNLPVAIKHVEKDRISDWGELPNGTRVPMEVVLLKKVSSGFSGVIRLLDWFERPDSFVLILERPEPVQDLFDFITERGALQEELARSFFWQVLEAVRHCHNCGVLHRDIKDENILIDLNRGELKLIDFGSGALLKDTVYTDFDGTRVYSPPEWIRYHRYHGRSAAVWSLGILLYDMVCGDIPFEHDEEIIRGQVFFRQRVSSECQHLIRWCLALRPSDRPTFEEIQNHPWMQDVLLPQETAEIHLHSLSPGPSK

[2] = test system: MiaPaca human pancreatic carcinoma cells; assay: Cell-proliferation assay using Alamar Blue dye; assay type: cell-based; details: MIA PaCa-2
Method in brief: as §1

FLT3 autophos = FLT3 autophos (Homo sapiens (Human), UniProt P36888); assay: FLT3 autophos IC50 (Table 46); assay type: cell-based
Sequence of FLT3 autophos (P36888 27-993): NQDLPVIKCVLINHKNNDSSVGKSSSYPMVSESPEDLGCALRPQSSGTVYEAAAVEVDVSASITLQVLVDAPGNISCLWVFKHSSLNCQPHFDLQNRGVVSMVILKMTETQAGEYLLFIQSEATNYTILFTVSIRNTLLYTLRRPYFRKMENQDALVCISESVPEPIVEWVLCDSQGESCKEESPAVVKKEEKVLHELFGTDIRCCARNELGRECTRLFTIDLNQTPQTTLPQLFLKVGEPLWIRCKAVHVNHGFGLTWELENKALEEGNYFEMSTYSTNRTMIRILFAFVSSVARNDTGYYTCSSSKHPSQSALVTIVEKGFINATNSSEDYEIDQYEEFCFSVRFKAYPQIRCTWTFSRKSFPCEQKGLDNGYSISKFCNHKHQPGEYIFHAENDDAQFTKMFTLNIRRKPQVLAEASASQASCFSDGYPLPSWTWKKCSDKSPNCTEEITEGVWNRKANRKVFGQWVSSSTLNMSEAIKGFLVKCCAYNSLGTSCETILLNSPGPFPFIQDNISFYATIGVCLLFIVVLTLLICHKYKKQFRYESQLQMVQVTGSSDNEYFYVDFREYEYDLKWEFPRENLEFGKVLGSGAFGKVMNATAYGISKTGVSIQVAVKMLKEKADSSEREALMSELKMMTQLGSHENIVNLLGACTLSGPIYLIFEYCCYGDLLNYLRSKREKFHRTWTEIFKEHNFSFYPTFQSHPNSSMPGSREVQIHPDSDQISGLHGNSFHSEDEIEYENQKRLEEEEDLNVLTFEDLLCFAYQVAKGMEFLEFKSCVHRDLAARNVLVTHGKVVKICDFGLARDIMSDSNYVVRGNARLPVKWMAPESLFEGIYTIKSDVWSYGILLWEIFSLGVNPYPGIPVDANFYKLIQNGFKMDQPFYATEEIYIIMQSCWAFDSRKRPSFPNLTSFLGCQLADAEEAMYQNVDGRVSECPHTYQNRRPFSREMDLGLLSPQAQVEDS

phospho-BAD ser112 = phospho-BAD ser112 IC50 (Table 46); assay type: cell-based
MiaPaca xenografts = assay: Tumor suppression in MiaPaca xenograft mice; assay type: in vivo, NCr nu/nu mice; details: IV administration
Protocol: Animals were handled under laminar-flow hoods.
Tumor volume measurements (FIG. 3A) and body weight (FIG. 3B) were recorded on days 3, 6, 8, 10, 13 and 15.
Gemzar™ administered at a dose of 80 mg/kg IP Q3D was used as a positive control.

MCF-7 = assay: Cell-proliferation assay using Alamar Blue dye; assay type: cell-based; details: Homo sapiens, MCF7
Protocol: (§2) A representative cell-proliferation assay protocol using Alamar Blue dye (stored at 4° C., use 20 ul per well) is described hereafter.
(§3) 96-Well Plate Setup and Compound Treatment
(§4) • a. Split and trypsinize cells. • b. Count cells using hemocytometer. • c. Plate 4,000-5,000 cells per well in 100 μl of medium and seed into a 96-well plate according to the following plate layout. Add cell culture medium only to wells B10 to B12. Wells B1 to B9 have cells but no compound added.
(§5) • d. Add 100 μl of 2× drug dilution to each well in a concentration shown in the plate layout above. At the same time, add 100 μl of media into the control wells (wells B10 to B12). Total volume is 200 μl/well. • e. Incubate four (4) days at 37° C., 5% CO2 in a humidified incubator. • f. Add 20 μl Alamar Blue reagent to each well. • g. Incubate for four (4) hours at 37° C., 5% CO2 in a humidified incubator. • h. Record fluorescence at an excitation wavelength of 544 nm and emission wavelength of 590 nm using a microplate reader.
(§6) In the assays, cells are cultured with a test compound for approximately four days, the dye then is added to the cells and fluorescence of […] dye is detected after approximately four hours. Different types of cells can be utilized in the assays (e.g., HCT-116 human colorectal carcinoma cells, PC-3 human prostatic cancer cells and MiaPaca human pancreatic carcinoma cells). Anti-proliferative effects of representative compounds are provided hereafter

A549 = assay: Cell-proliferation assay using Alamar Blue dye; assay type: cell-based; details: Homo sapiens
Protocol: as §2, §3, §4, §5, §6

LNCaP = assay: Cell-proliferation assay using Alamar Blue dye; assay type: cell-based; details: Homo sapiens
Protocol: as §2, §3, §4, §5, §6

MDAMB231 = assay: Cell-proliferation assay using Alamar Blue dye; assay type: cell-based; details: Homo sapiens, MDA-MB-231
Protocol: as §2, §3, §4, §5, §6

[3] = Pharmacokinetics after IV and PO dose in ICR mice; assay type: in vivo; details: for half-life: mouse, plasma
Protocol: […] Blood samples were collected at predetermined times and the plasma separated. Plasma was separated from the blood samples collected at 5, 15 and 30 minutes and 1, 2, 4, 8 and 24 hours post-dose.
Drug levels were quantified by the LC/MS/MS method described below. Noncompartmental pharmacokinetic analysis was applied for intravenous administration. A linear trapezoidal rule was used to compute AUC(0-24). The terminal t1/2 and C0 were calculated using the last three and the first three data points, respectively
Bioanalysis was performed using a Quattro Micro LC/MS/MS instrument in the MRM detection mode, with an internal standard (IS). Briefly, 15 µL plasma samples were prepared for analysis using protein precipitation with 120 μL of acetonitrile. The supernatants were transferred into a 96 well plate and subjected to LC-MS/MS analysis using a Phenomenex Polar-RP HPLC column. The mobile phases were 10 mM NH4HCO3 in water (Solution-A) and 10 mM NH4HCO3 in methanol (Solution-B). […] Quantitation of the analytes was performed in the batch mode with two bracketing calibration curves according to the bioanalytical sample list.

Sequence of recombinant human CK2 (P68400 whole entry): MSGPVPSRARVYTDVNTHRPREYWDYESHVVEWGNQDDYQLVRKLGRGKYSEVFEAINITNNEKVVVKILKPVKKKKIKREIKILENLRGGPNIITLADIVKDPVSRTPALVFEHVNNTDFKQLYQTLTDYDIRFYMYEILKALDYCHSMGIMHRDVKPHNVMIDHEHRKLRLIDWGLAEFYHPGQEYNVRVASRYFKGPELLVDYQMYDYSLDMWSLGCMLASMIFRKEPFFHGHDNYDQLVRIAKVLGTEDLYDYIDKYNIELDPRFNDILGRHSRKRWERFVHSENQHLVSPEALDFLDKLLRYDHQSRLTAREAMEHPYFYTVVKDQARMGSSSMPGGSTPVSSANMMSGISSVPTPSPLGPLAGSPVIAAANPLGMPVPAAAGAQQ
Sequence of recombinant human CK2 (P67870 whole entry partner): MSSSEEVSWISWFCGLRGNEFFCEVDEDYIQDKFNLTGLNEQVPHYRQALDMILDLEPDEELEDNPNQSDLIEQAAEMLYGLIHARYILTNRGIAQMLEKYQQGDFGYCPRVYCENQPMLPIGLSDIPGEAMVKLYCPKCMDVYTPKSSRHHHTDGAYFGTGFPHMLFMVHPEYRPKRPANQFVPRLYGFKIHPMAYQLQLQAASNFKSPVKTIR

Structure (SMILES) | pIC50 (MV-411) | pIC50 (MDA MB231) | pIC50 (K-562) | pIC50 [1] | pIC50 (recombinant human PIM1) | pIC50 [2] | pIC50 (FLT3 autophos) | pIC50 (phospho-BAD ser112) | also measured
O=C(O)c1ccc2c(c1)[nH]c(=O)c1ccccc12 | – | – | – | – | – | – | – | – | inhibition at 5 µM (recombinant human CK2): 28%; pIC50 (PARP-HSA enzyme): 7.15
O=C(O)c1ccc2c3ccccc3c(=O)n(CCCO)c2c1 | – | – | – | – | – | – | – | – | inhibition at 5 µM (recombinant human CK2): 29%; pIC50 (PARP-HSA enzyme): 7.22
O=C(Nc1ccccc1)c1ccc2c(c1)[nH]c(=O)c1ccsc12 | – | – | – | – | – | – | – | – | inhibition at 10 µM (recombinant human CK2): 22%; PARP % inhib @ 1 uM (PARP-HSA enzyme): 0%
COc1ccc(NC(=O)c2ccc3c(c2)[nH]c(=O)c2ccsc23)c(OC)c1 | – | – | – | – | – | – | – | – | inhibition at 10 µM (recombinant human CK2): 3%; PARP % inhib @ 1 uM (PARP-HSA enzyme): 0%
O=C(Nc1ccc(N2CCOCC2)cc1)c1ccc2c(c1)[nH]c(=O)c1ccsc12 | – | – | – | – | – | – | – | – | inhibition at 10 µM (recombinant human CK2): -3%; PARP % inhib @ 1 uM (PARP-HSA enzyme): 0%
COc1ccccc1NC(=O)c1ccc2c(c1)[nH]c(=O)c1ccsc12 | – | – | – | – | – | – | – | – | inhibition at 10 µM (recombinant human CK2): -7%; PARP % inhib @ 1 uM (PARP-HSA enzyme): 0%
NCc1ccc(Nc2nc3c(-c4nnc[nH]4)cccc3c3cnccc23)cc1 | > 7.00 | 5.02 | < 5.00 | < 4.52 | > 7.00 | – | – | – | –
CN(C)CCOc1ccc(Nc2nc3c(-c4nnc[nH]4)cccc3c3cnccc23)c(F)c1 | > 7.00 | 5.66 | > 6.00 | 4.92 | – | – | – | – | –
Fc1cc(OCCN2CCCC2)ccc1Nc1nc2c(-c3nnc[nH]3)cccc2c2cnccc12 | > 7.00 | > 6.00 | > 6.30 | – | > 7.00 | – | < 5.00 | > 7.00 | –
CN(C)CCOc1ccc(Nc2nc3c(-c4nnc[nH]4)cccc3c3cnccc23)cc1 | > 7.00 | 5.59 | > 7.00 | 5.75 | > 7.00 | – | < 5.00 | > 7.00 | –
CN(C)CCOc1ccc(Nc2nc3c(-c4nnc[nH]4)cccc3c3cnccc23)c(Cl)c1 | > 7.00 | 5.91 | 5.16 | – | > 7.00 | – | 5.27 | > 7.00 | –
CS(=O)(=O)c1ccc(Nc2nc3c(-c4nnc[nH]4)cccc3c3cnccc23)c(Cl)c1 | > 7.00 | 5.56 | 5.58 | 5.82 | > 7.00 | – | – | – | –
c1cc(-c2nnc[nH]2)c2nc(NC3CCC3)c3ccncc3c2c1 | > 7.00 | < 5.00 | > 6.30 | > 6.30 | > 7.00 | 5.12 | < 5.00 | > 7.00 | –
COc1ccc(Nc2nc3c(-c4nnc[nH]4)cccc3c3cnccc23)c(F)c1 | > 7.00 | 5.16 | > 6.00 | > 6.30 | > 7.00 | > 6.30 | < 5.00 | 6.29 | –
c1cc(-c2nnc[nH]2)c2nc(N3CCCC3)c3ccncc3c2c1 | > 6.00 | < 5.00 | 5.49 | < 4.52 | > 6.30 | > 7.00 | < 5.00 | 5.53 | –
c1cc(-c2nnc[nH]2)c2nc(NC3CCCC3)c3ccncc3c2c1 | > 6.30 | < 5.00 | 5.72 | < 4.52 | > 7.00 | – | < 5.00 | > 6.30 | –
CCOC(=O)c1ccc(Nc2nc3c(-c4nnc[nH]4)cccc3c3cnccc23)c(Cl)c1 | > 7.00 | < 5.00 | < 5.00 | < 4.52 | > 7.00 | < 5.00 | – | – | –
FC(F)(F)Oc1ccc(Nc2nc3c(-c4nnc[nH]4)cccc3c3cnccc23)c(Cl)c1 | > 7.00 | < 5.00 | < 5.00 | < 4.52 | > 7.00 | < 5.00 | < 5.00 | 5.38 | –
Oc1ccc(Nc2nc3c(-c4nnc[nH]4)cccc3c3cnccc23)c(Cl)c1 | < 5.00 | 5.62 | > 6.30 | > 6.30 | > 7.00 | > 6.00 | – | – | –
O=C(O)c1ccc2c(c1)nc(Nc1cccc(C(F)(F)F)c1)c1nc(NC3CC3)ncc12 [Compound A3] | – | – | – | – | – | – | – | – | tumor progression (MiaPaca xenografts): significantly inhibited tumor progression
O=C(O)c1ccc2c(c1)nc(OCCCO)c1ccccc12 [drawing 559] | – | – | – | – | – | – | – | – | inhibition at 5 µM (recombinant human CK2): 38%; pIC50 (PARP-HSA enzyme): 6.40
O=C(O)c1ccc2c(c1)nc(Nc1ccccc1)c1ccccc12 [drawing 564] | – | – | – | – | – | – | – | – | PARP Inhibition (PARP-HSA enzyme; at 1 μM): 9% (at 1 μM)
COC(=O)c1ccc2c(c1)nc(Cl)c1ccsc12 [drawing 695] | – | – | – | – | – | – | – | – | inhibition at 10 µM (recombinant human CK2): 18%; PARP % inhib @ 1 uM (PARP-HSA enzyme): 18%
O=C(O)c1ccc2c(c1)nc(NCCc1ccccc1)c1ccncc12 [drawing 988] | – | – | – | – | – | – | – | – | IC50 (MCF-7): 14.7 µM; IC50 (A549): 47 µM; IC50 (LNCaP): 8.6 µM
O=C(O)c1ccc2c(c1)nc(NCCc1cccc(F)c1)c1ccncc12 [drawing 1002] | – | – | – | – | – | – | – | – | IC50 (MCF-7): > 50 µM; IC50 (A549): 47.2 µM; IC50 (LNCaP): 10.3 µM; IC50 (MDAMB231): 5.83 µM
C#Cc1cccc(Nc2nc3cc(C(=O)O)ccc3c3cncnc23)c1 [drawing 1129] | – | – | – | – | – | – | – | – | F(0-24 h) ([3]; PO 24.5 mg/kg): 26.5%; F(0-Inf) ([3]; PO 24.5 mg/kg): 31.1%; Kel ([3]; PO 24.5 mg/kg): 0.0594 h⁻¹; half-life ([3]; IV 3.4 mg/kg): 4.9 h; half-life ([3]; PO 24.5 mg/kg): 11.7 h

The next lines start with results.

pIC50 (MV-411) | pIC50 (MDA MB231) | pIC50 (K-562) | pIC50 [1] | pIC50 (recombinant human PIM1) | pIC50 [2] | pIC50 (FLT3 autophos) | pIC50 (phospho-BAD ser112) | Structure (SMILES) | also measured
> 7.00 | 5.53 | > 6.00 | 5.44 | – | 5.82 | – | – | CN1CCN(c2ccc(Nc3nc4c(-c5nnc[nH]5)cccc4c4cnccc34)c(Cl)c2)CC1 | –
> 7.00 | < 5.00 | < 5.00 | < 4.52 | > 7.00 | – | 5.22 | > 7.00 | Clc1cc(OCCN2CCOCC2)ccc1Nc1nc2c(-c3nnc[nH]3)cccc2c2cnccc12 | –
> 7.00 | 5.69 | > 6.30 | > 6.00 | > 7.00 | 6.57 | < 5.00 | > 6.30 | c1cc(-c2nnc[nH]2)c2nc(Nc3ccc(OCCN4CCOCC4)cc3)c3ccncc3c2c1 | –
> 7.00 | < 5.00 | < 5.00 | < 4.52 | > 7.00 | > 6.30 | – | – | CNC(=O)c1cccc2c1nc(Nc1cccc(Cl)c1)c1ccncc12 [drawing 2307] | –
